Assay results taken from patent US8609667B2, “E-type phenyl acrylic ester compounds containing substituted anilino pyrimidine group and uses thereof” (Sinochem Corporation, priority 2009, dated 2013).
Where two headings read alike, the source gives them in different places.

Key:
[1] = tested on: nymphs of Tetranychus cinnabarinus; assay: Acaricidal activity against nymphs in greenhouse (spray, mortality after 72 hrs); assay type: in vivo
Method: (§1) The activity determinations of compounds of the present invention against adults, nymphs and eggs of Tetranychus cinnabarinus were carried out in greenhouse by the following procedures:
The activity determination against nymphs in greenhouse: broadbean shoots with two true leaves in pot were taken, ten healthy female adults of Tetranychus cinnabarinus were inoculated to the leaves, the adults were removed after 24 hrs and the eggs were cultivated into nymphs after 7-10 days. The nymphs were counted and then sprayed. 3 replicates were set for each treatment. And then were maintained in standard observation room. Scores were conducted and mortalities were calculated after 72 hrs.

citrus red mite = assay: Field trial against citrus red mite (Guilin, China); assay type: in vivo
Method: Field Trial Against Citrus Red Mite (Guilin, China)
The trial was carried out in a 2-year-old Shatang orange orchard in Chaotian town lingchuan county guilin city, trifoliate orange trees were selected as stocks, the intervals between two plants was 1.5×2.5 m, the average height was 1.45 m and the crown width was 1.30 m. Two trees were selected in each plot, with random arrangement and 4 replications. Compound 9 (15% SC) was set at two different doses (100 mg/L and 25 mg/L), and spirodiclofen (24% SC) was set at one dose (48 mg/L). Matabi Supergreen 16 Knapsack Sprayer 16 Liter was used to spray evenly with 2 L of spaying volume for each plant. The plants were treated once on 30 Oct. 2009, at that time, adults, nymphs and eggs of citrus red mite all existed, with adults/eggs=1/1.27. During the day the plants were treated, and the weather was good with the average temperature at 23° C. The first three days after treatment were all clear days. The number of mites was investigated before treatment and on the 1st, 3rd, 10th, 15th, 20th and 30th day after treatment respectively. Two trees of each plot were investigated according to the five directions of the tree crown (east, south, west, north and central), 5 leaves in each direction were investigated to calculate the number of living mites, with 50 leaves each plot. The decline rate of mite population and corrected efficacy were calculated according to formulas below: The decline rate of mite population(%)=[(the average number of mite on each leaf before treatment−the average number of mite on each leaf after treatment)/the average number of mite on each leaf before treatment]×100. Corrected efficacy(%)=[(the decline rate of mite population in treated area−the decline rate of mite population in untreated area)/(100−the decline rate of mite population in untreated area)]×100.

[2] = tested on: adults of Tetranychus cinnabarinus; assay: Acaricidal activity against adults in greenhouse (spray on broadbean shoots, mortality after 72 hrs); assay type: in vivo; settings: for control against adults of Tetranychus cinnabarinus: spray, 72 hrs
Method: as §1
The activity determination against adults in greenhouse: the compounds were weighed and dissolved in acetone to obtain mother liquid, and then the mother liquid was diluted to required concentration with placed running water containing 0.1% of Tween 80. Broadbean shoots with two true leaves were used to inoculate adults of Tetranychus cinnabarinus which were counted, spraying treatment was performed by portable sprayer (DeVilbiss Atomizer M163), 3 replicates were set for each treatment. After treatment the broadbean shoots were maintained in standard observation room. Scores were conducted and mortalities were calculated after 72 hrs.

[3] = tested on: eggs of Tetranychus cinnabarinus; assay: Activity against eggs in greenhouse (hatching inhibition rate); assay type: in vivo; settings: Tetranychus cinnabarinus
Method: as §1
The activity determination against eggs in greenhouse: Broadbean shoots in pot with one true leaf retained were taken, ten healthy female adults of Tetranychus cinnabarinus were inoculated to the leaves, the adults were removed after 24 hrs and the eggs were counted and then sprayed. The treatment of test compounds and spaying method were the same as that of the activity determination in greenhouse against adults. Once eggs of blank control were all hatched after 5 days, unhatched eggs in each treatment were investigated and the hatching inhibition rate were calculated.

## CO/C=C(/C(=O)OC)c1ccccc1COc1cc(C(F)(F)F)nc(Nc2ccc(Cl)cc2Cl)n1 [Compound 9]
[1]; dose 0.63 mg/L
  control against nymphs of Tetranychus cinnabarinus: more than 95%
[1]; dose 2.5 mg/L
  control against nymphs of Tetranychus cinnabarinus: 100%
Citrus red mite; 25 mg/L (15% SC), the 1st day after treatment
  Corrected efficacy (%): 90%
Citrus red mite; 25 mg/L (15% SC), the 3rd day after treatment
  Corrected efficacy (%): 92%
Citrus red mite; 25 mg/L (15% SC), the 10th day after treatment
  Corrected efficacy (%): 83%
Citrus red mite; 25 mg/L (15% SC), the 15th day after treatment
  Corrected efficacy (%): 91%
Citrus red mite; 25 mg/L (15% SC), the 20th day after treatment
  Corrected efficacy (%): 92%
Citrus red mite; 25 mg/L (15% SC), the 30th day after treatment
  Corrected efficacy (%): 91%
Citrus red mite; 100 mg/L (15% SC), the 1st day after treatment
  Corrected efficacy (%): 92%
Citrus red mite; 100 mg/L (15% SC), the 3rd day after treatment
  Corrected efficacy (%): 96%
Citrus red mite; 100 mg/L (15% SC), the 10th day after treatment
  Corrected efficacy (%): 96%
Citrus red mite; 100 mg/L (15% SC), the 15th day after treatment
  Corrected efficacy (%): 95%
Citrus red mite; 100 mg/L (15% SC), the 20th day after treatment
  Corrected efficacy (%): 97%
Citrus red mite; 100 mg/L (15% SC), the 30th day after treatment
  Corrected efficacy (%): 94%
[2]; Tetranychus cinnabarinus, 0.625 mg/L, Table 7, read-out: mortalities of adults of Tetranychus cinnabarinus (%)
  mortality at 0.625 µg/mL: 88%
[2]; Tetranychus cinnabarinus, 1.25 mg/L, Table 7, read-out: mortalities of adults of Tetranychus cinnabarinus (%)
  mortality at 1.25 µg/mL: 90%
[2]; Tetranychus cinnabarinus, 2.5 mg/L, Table 7, read-out: mortalities of adults of Tetranychus cinnabarinus (%)
  mortality at 2.5 µg/mL: 98%
[2]; Tetranychus cinnabarinus, 5 mg/L, Table 7, read-out: mortalities of adults of Tetranychus cinnabarinus (%)
  mortality at 5 µg/mL: 100%
[2]; Tetranychus cinnabarinus, 10 mg/L, Table 7, read-out: mortalities of adults of Tetranychus cinnabarinus (%)
  mortality at 10 µg/mL: 100%
[2]; Tetranychus cinnabarinus, 40 mg/L, Table 7, read-out: mortalities of adults of Tetranychus cinnabarinus (%)
  mortality at 40 µg/mL: 100%
[2]; dose 5 mg/L
  control against adults of Tetranychus cinnabarinus: 100%
[2]; dose 10 mg/L
  control against adults of Tetranychus cinnabarinus: 100%
[2]; dose 40 mg/L
  control against adults of Tetranychus cinnabarinus: 100%
[2]; dose 100 mg/L
  control against adults of Tetranychus cinnabarinus: 100%
[3]; 0.625 mg/L, Table 8, read-out: hatching inhibition rate against eggs (%)
  inhibition at 0.625 µg/mL: 20%
[3]; 2.5 mg/L, Table 8, read-out: hatching inhibition rate against eggs (%)
  inhibition at 2.5 µg/mL: 100%
[3]; 10 mg/L, Table 8, read-out: hatching inhibition rate against eggs (%)
  inhibition at 10 µg/mL: 100%
[3]; dose 2.5 mg/L, read-out: hatching inhibition rate against eggs of Tetranychus cinnabarinus
  inhibition at 2.5 µg/mL: ≥ 90%
[3]; dose 10 mg/L, read-out: hatching inhibition rate against eggs of Tetranychus cinnabarinus
  inhibition at 10 µg/mL: 100%

## CO/C=C(/C(=O)OC)c1ccccc1COc1nc(Nc2ccc(F)cc2F)nc2c1CCC2 [Compound 96]
other
  melting point: 106 to 108 °C

## CO/C=C(/C(=O)OC)c1ccccc1COc1nc(Nc2ccc(Cl)cc2Cl)nc2c1CCC2 [Compound 97]
other
  melting point: 150 to 151 °C

## CO/C=C(/C(=O)OC)c1ccccc1COc1nc(Nc2ccc(F)c(F)c2F)nc2c1CCC2 [Compound 103]
other
  melting point: 118 to 120 °C

## CO/C=C(/C(=O)OC)c1ccccc1COc1nc(Nc2ccc(Cl)c(C)c2Cl)nc2c1CCC2 [Compound 105]
other
  melting point: 150 to 151 °C

## CO/C=C(/C(=O)OC)c1ccccc1COc1nc(Nc2cccc(Cl)c2Cl)nc2c1CCC2 [Compound 128]
other
  melting point: 132 to 134 °C
